These results are taken from ChEMBL document CHEMBL1152627, “Structure-activity relationship of antiparasitic and cytotoxic indoloquinoline alkaloids, and their tricyclic and bicyclic analogues” (Bioorg Med Chem, 2009).

Structures can show the parent of a compound that is named as a salt. Calls of active or inactive are those of the source. The calls are words filed in the database; no cut-off is given here. A value given as a limit tells only on which side of the number the result lay.

In data set [1] the test system is Leishmania donovani. Description: Antileishmanial activity against Leishmania donovani axenic amastigotes. The data set is classed as functional, organism-based.
The test system of data set [2] is Trypanosoma cruzi. Description: Antitrypanosomal activity against Trypanosoma cruzi. The data set is classed as functional, organism-based.
The subject of data set [3] is L6. Description: (§1) Toxicity against rat L6 cells. The data set is classed as cell-based. The settings on record: l6.
Data set [4] deals with Trypanosoma brucei rhodesiense. Description: Antitrypanosomal activity against Trypanosoma brucei rhodesiense. The class given is functional, organism-based.
Data set [5] deals with Plasmodium falciparum. In words: Antimalarial activity against chloroquine and pyrimethamine-resistant Plasmodium falciparum K1 by [3H]hypoxanthine incorporation assay. The class given is functional, organism-based.
Data set [6] can be described thus: Selectivity index, ratio of IC50 for mice (Mus musculus) FM3A cells to IC50 for chloroquine-sensitive Plasmodium falciparum FCR3/Gambia. The class given is toxicity, cell-based. As to conditions: read-out: Ratio IC50.
Data set [7] concerns FM3A. In words: Cytotoxicity in mouse FM3A cells. The data set is classed as cell-based.
In data set [8] the test system is Plasmodium falciparum. Description: Antimalarial activity against chloroquine-sensitive Plasmodium falciparum FCR3/Gambia. The class given is functional. The settings on record: FCR-3/Gambia.
Data set [9] has as its system THP-1. In words: Cytotoxicity in human THP1 cells. The class given is cell-based.
In data set [10] the test system is Plasmodium falciparum. Description: Antimalarial activity against chloroquine-sensitive Plasmodium falciparum D6. The data set is classed as functional, organism-based.
Data set [11] deals with Plasmodium falciparum. Description: Antimalarial activity against chloroquine-resistant Plasmodium falciparum W2. The class given is functional, organism-based.
Data set [12] in a line: as §1. The data set is classed as cell-based. As to conditions: rat, L6 cells.
The test system of data set [13] is Nucleic Acid. In words: Displacement of methyl green dye from DNA. The class given is nucleic-acid assay.
Data set [14] can be described thus: Inhibition of beta-hematin formation by BHIA assay. The data set is classed as functional.
For data set [15], the system named is Plasmodium falciparum. Description: Antimalarial activity against Plasmodium falciparum isolates. The class given is functional, organism-based.
For data set [16], the system named is Plasmodium falciparum. Description: Antimalarial activity against chloroquine and pyrimethamine-resistant Plasmodium falciparum K1. The data set is classed as functional, organism-based.
Data set [17] concerns Plasmodium berghei. Description: Antimalarial activity against Plasmodium berghei ANKA infected in Swiss mice (Mus musculus) assessed as parasitaemia level at 10 mg/kg, intraperitoneally dosed for 5 consecutive days measured 4 days post infection. The settings on record: route intraperitoneal.
Data set [18] has as its system Plasmodium berghei. In words: Antimalarial activity against Plasmodium berghei ANKA infected in Swiss mice (Mus musculus) assessed as suppression of parasitaemia at 10 mg/kg, intraperitoneally dosed for 5 consecutive days measured 4 days post infection relative to untreated control. As to conditions: route intraperitoneal.
Data set [19] has as its system Plasmodium berghei. Description: Antimalarial activity against Plasmodium berghei ANKA infected in Swiss mice (Mus musculus) assessed as mice (Mus musculus) survival at 10 mg/kg, intraperitoneally dosed for 5 consecutive days measured 7 days post infection. The settings on record: ip, 168 h.

Turning to `Cn1cccc2c3ccccc3nc1-2` [listing 1 of 2 here], the IC50 in data set [1] (Leishmania donovani) was greater than 160 µM; in [2], 89.2 µM; in [3], 300 µM; in data set [4] (Trypanosoma brucei) it was 21.3 µM; in data set [5], 14.7 µM.
Regarding `CCc1c2[nH]c3ccccc3c2c(OC)c[n+]1C`, the selectivity ratio in data set [6] is greater than 32. In addition, the values for the IC50 in data set [7] and in data set [8] were greater than 10 µM and less than 1 µM, respectively.
`Cc1nccc2c1[nH]c1ccccc12` [HARMAN]: the IC50 in data set [9] was 121 µM; in data set [10], 12.1 µM; in [11], 7.1 µM.
On to `Cn1cc2ccccc2c2ccnc1-2`, for which the IC50 in [1] (Leishmania donovani) is 97.5 µM; in data set [2] (Trypanosoma cruzi), 40.9 µM; in data set [12], 153 µM; in [4] (Trypanosoma brucei) it was 8.4 µM; in data set [5] (Plasmodium falciparum, K1) it was 7.8 µM.
For the compound `C=Cc1c2[nH]c3ccccc3c2c(OC)c[n+]1CC`, the selectivity ratio in [6] was greater than 32. For the same compound, the figures for the IC50 in [7] and in data set [8] were greater than 10 µM and less than 1 µM, respectively.
Turning to `Cn1ccc2nc3ccccc3c-2c1` [listing 1 of 2 here], the IC50 in [1] was greater than 95 µM; in [2], greater than 95 µM; in data set [3] it was greater than 290 µM; in data set [4] (Trypanosoma brucei), 109 µM; in data set [5] it was 2.4 µM.
For `Cn1cc2ccccc2c2nc3ccccc3c1-2` [listing 1 of 2 here], the IC50 in data set [1] was determined as 16.8 µM; in [2] (Trypanosoma cruzi), 1.53 µM; in [3] it was 2.2 µM; in data set [4] (Trypanosoma brucei) it was 0.55 µM; in [5] it was 0.57 µM.
For the compound `Cn1cc2nccc-2c2ccccc21`, the IC50 in data set [1] (Leishmania donovani) came to 169 µM; in data set [2] (Trypanosoma cruzi) it was 76.8 µM; in [12], 160 µM; in data set [4] (Trypanosoma brucei), 31.5 µM; in data set [5] (Plasmodium falciparum, K1), 3.2 µM.
With `C[n+]1cc2[nH]c3ccccc3c2c2ccccc21` [ISONEOCRYPTOLEPINE HYDROCHLORIDE], the IC50 in data set [1] (Leishmania donovani) was found to be 75.4 µM; in [2] (Trypanosoma cruzi), 21 µM; in data set [4] (Trypanosoma brucei), 6.48 µM; in [5] (Plasmodium falciparum, K1), 0.23 µM. Besides, the inhibition result in data set [13] and in data set [14] was “Active” each time.
`C=Cc1ncc(OC)c2c1[nH]c1ccccc12`: in [15], the IC50 came to 10.7 µM.
On to `CCCCCCCCCCCCCCCCOP(=O)([O-])OCC[N+](C)(C)C` [MILTEFOSINE], for which the IC50 in data set [12] was determined as 58.4 µM.
Consider `C[n+]1c2ccccc2cc2[n-]c3ccccc3c21` [CRYPTOLEPINE HYDROCHLORIDE], for which the IC50 was 2.68 µM in data set [1] (Leishmania donovani); 0.22 µM in data set [2] (Trypanosoma cruzi); 0.6 µM in data set [4] (Trypanosoma brucei); 0.12 µM in data set [5] (Plasmodium falciparum, K1). The inhibition entry in data set [13] and in data set [14] was “Active” throughout.
In the case of `COc1ccc2c3cc[n+](C)c(C)c3n(C)c2c1`, the selectivity ratio in data set [6] was greater than 32. The IC50 was greater than 10 µM in [7] and less than 1 µM in data set [8].
As for `Cn1ccc2nc3ccccc3c-2c1` [listing 2 of 2 here], the IC50 is greater than 160 µM in data set [1] (Leishmania donovani); greater than 160 µM in data set [2] (Trypanosoma cruzi); 390 µM in data set [12]; 138 µM in [4]; 2.1 µM in data set [5] (Plasmodium falciparum, K1).
For `Cn1cccc2nc3ccccc3c1-2` [listing 1 of 2 here], the IC50 was greater than 95 µM in data set [1]; greater than 95 µM in data set [2]; 132 µM in data set [12]; 86.1 µM in data set [4] (Trypanosoma brucei); 0.38 µM in [5] (Plasmodium falciparum, K1).
For the compound `Cn1cccc2nc3ccccc3c1-2` [listing 2 of 2 here], the IC50 in [1] (Leishmania donovani) is greater than 160 µM; in data set [2] (Trypanosoma cruzi), greater than 160 µM; in data set [3], 179 µM; in data set [4], 138 µM; in data set [5] it was 0.48 µM.
As to `c1ccc2c(c1)ncc1[nH]ccc12`, the IC50 amounted to 183 µM in [1] (Leishmania donovani); 81 µM in data set [2] (Trypanosoma cruzi); 173 µM in [12]; 25.5 µM in data set [4] (Trypanosoma brucei); 6.4 µM in [5] (Plasmodium falciparum, K1).
In the case of `C[n+]1ccc2c(c1)[nH]c1ccccc12` [listing 1 of 2 here], the IC50 in [1] (Leishmania donovani) was 52.3 µM; in [2] (Trypanosoma cruzi), greater than 95 µM; in data set [12] it was greater than 290 µM; in data set [13], greater than 2800 µM; in data set [4] (Trypanosoma brucei), 155 µM; in data set [5] (Plasmodium falciparum, K1) it was 0.34 µM.
Regarding `Cn1cccc2c3ccccc3nc1-2` [listing 2 of 2 here], the IC50 in data set [1] is greater than 95 µM; in data set [2] (Trypanosoma cruzi), 64.5 µM; in [12], 236 µM; in data set [4], 34 µM; in data set [5] (Plasmodium falciparum, K1), 13 µM.
Take `COc1c[n+](C)c(C)c2[nH]c3ccccc3c12`: the selectivity ratio in data set [6] was greater than 32. In addition, the results for the IC50 in data set [7] and in [8] were greater than 10 µM and less than 1 µM, respectively.
For `O=C(Cn1ccnc1[N+](=O)[O-])NCc1ccccc1` [BENZNIDAZOLE], the IC50 was 1.25 µM in [2] (Trypanosoma cruzi) and greater than 90 µM in [12].
`Nc1nc(N)nc(Nc2ccc([As]3SCC(CO)S3)cc2)n1` (stereo not drawn) [MELARSOPROL] returned an IC50 in [12] of 8.6 µM.
As to `Cn1cc2ccccc2c2nc3ccccc3c1-2` [listing 2 of 2 here], the IC50 in [1] (Leishmania donovani) amounted to 15.5 µM; in data set [2], 1.66 µM; in [12] it was 1.48 µM; in data set [4], 0.72 µM; in data set [5] (Plasmodium falciparum, K1), 0.64 µM.
Turning to `c1ccc2c(c1)cnc1[nH]ccc12`, the IC50 in data set [1] (Leishmania donovani) was 30.3 µM; in [2] (Trypanosoma cruzi) it was 69.6 µM; in data set [12], 119 µM; in [4] (Trypanosoma brucei) it was 43.5 µM; in [5] (Plasmodium falciparum, K1), 23.2 µM.
Turning to `C[n+]1ccc2c(c1)[nH]c1ccccc12` [listing 2 of 2 here], in data set [14], the inhibition result was “inactive”.
With `Cn1cc2ccccc2c2c3ccccc3nc1-2`, the IC50 in [1] (Leishmania donovani) was found to be 4.8 µM; in [2], 20.7 µM; in [3], 1.3 µM; in data set [13], 81 µM; in data set [4] it was 3.33 µM; in data set [5] (Plasmodium falciparum, K1) it was 0.04 µM. In data set [14], this compound yielded an IC50 of 2.76 molar equivalents.
On to `Cn1cc2ccccc2c2c3ccccc3nc1-2.I`, for which the IC50 turned out to be 6.6 µM in data set [1]; 11.9 µM in data set [2] (Trypanosoma cruzi); 1.5 µM in data set [12]; 87 µM in data set [13]; 2.59 µM in [4] (Trypanosoma brucei); 0.032 µM in data set [5]. For the same compound, the IC50 in data set [14] amounted to 3.32 molar equivalents.
On to `C[n+]1ccc2c(c1)[nH]c1ccccc12` [NORMELINONINE F HYDROCHLORIDE], for which the IC50 in [16] stood at 13.6 µM.
For `Cn1cc2c3ccccc3nc-2c2ccccc21` [ISOCRYPTOLEPINE HYDROCHLORIDE], the IC50 in [1] (Leishmania donovani) amounted to 39.1 µM; in [2] (Trypanosoma cruzi), 1.27 µM; in data set [4] (Trypanosoma brucei), 0.52 µM; in [5] (Plasmodium falciparum, K1), 0.78 µM. Further, the inhibition result in data set [13] and in data set [14] was “Active” throughout.
With `CCN(CC)CCCC(C)Nc1ccnc2cc(Cl)ccc12` (stereo not drawn) [CHLOROQUINE], the Activity in [17] worked out at 5.24%; in data set [18], 86.3%. Besides, in data set [12], the IC50 came to 43.1 µM. Also, the survival at 10 mg/kg in data set [19] came out at 100%.
For the compound `Cc1c2[nH]c3ccccc3c2cc[n+]1C`, in data set [6], the selectivity ratio came to 18. This compound also displayed an IC50 in data set [16] of 5.1 µM.
On to `CC1NCCc2c1[nH]c1ccccc21` (stereo not drawn) [TETRAHYDROHARMAN], for which the IC50 in [9] worked out at 403 µM; in [10], 20.1 µM; in data set [11] it was 7.5 µM.
Regarding `Cn1c2nc3ccccc3c-2cc2ccccc21` [NEOCRYPTOLEPINE HYDROCHLORIDE], the IC50 in data set [1] (Leishmania donovani) came out at 49.5 µM; in data set [2] (Trypanosoma cruzi), 2.01 µM; in [4] (Trypanosoma brucei), 2.23 µM; in [5] (Plasmodium falciparum, K1) it was 2.61 µM. Also, the inhibition entry in data set [13] and in data set [14] was “Active” in each case.
As for `Cn1ccc2c3ccccc3nc-2c1`, the IC50 in [1] (Leishmania donovani) was 92.1 µM; in data set [2] (Trypanosoma cruzi), greater than 160 µM; in [12] it was greater than 490 µM; in data set [13], greater than 3800 µM; in data set [4] (Trypanosoma brucei) it was 93.7 µM; in [5] (Plasmodium falciparum, K1), 0.45 µM. Besides, the inhibition result in data set [14] was “inactive”.
In turn, `C=Cc1ncc(OC)c2c1[nH]c1ccc(O)cc12` displayed an IC50 in data set [15] of 13.7 µM.
